The text below walks through data of ChEMBL document CHEMBL4007427, “Inhibition of the Aldehyde Dehydrogenase 1/2 Family by Psoralen and Coumarin Derivatives” (J Med Chem, 2017).

In assay [1] the target is T1, Aldehyde dehydrogenase, mitochondrial (Homo sapiens, UniProt P05091).
T1 sequence (P05091 whole entry): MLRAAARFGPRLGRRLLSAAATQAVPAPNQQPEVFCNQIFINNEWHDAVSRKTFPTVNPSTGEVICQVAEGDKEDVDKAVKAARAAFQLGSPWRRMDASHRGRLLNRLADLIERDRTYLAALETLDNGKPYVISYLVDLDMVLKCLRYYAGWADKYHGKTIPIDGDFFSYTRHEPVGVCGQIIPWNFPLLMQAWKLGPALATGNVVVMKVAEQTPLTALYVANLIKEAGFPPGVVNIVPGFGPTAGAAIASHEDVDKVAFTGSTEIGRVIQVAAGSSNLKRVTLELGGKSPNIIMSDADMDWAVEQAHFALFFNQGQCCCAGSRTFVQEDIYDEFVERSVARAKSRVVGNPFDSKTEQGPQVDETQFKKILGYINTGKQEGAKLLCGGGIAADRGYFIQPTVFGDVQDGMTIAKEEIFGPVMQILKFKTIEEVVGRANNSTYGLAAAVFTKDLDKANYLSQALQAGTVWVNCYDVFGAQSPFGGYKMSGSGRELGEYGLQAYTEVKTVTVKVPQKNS
Description: Competitive inhibition of full length recombinant human ALDH2 expressed in Escherichia coli assessed as reduction in dehydrogenase activity using propionaldehyde as substrate in presence of varying levels NAD+ by Lineweaver-Burk plot analysis

Assay [2] concerns the target T2, Aldehyde dehydrogenase 1A1 (Homo sapiens, UniProt P00352).
T2 sequence (P00352 whole entry): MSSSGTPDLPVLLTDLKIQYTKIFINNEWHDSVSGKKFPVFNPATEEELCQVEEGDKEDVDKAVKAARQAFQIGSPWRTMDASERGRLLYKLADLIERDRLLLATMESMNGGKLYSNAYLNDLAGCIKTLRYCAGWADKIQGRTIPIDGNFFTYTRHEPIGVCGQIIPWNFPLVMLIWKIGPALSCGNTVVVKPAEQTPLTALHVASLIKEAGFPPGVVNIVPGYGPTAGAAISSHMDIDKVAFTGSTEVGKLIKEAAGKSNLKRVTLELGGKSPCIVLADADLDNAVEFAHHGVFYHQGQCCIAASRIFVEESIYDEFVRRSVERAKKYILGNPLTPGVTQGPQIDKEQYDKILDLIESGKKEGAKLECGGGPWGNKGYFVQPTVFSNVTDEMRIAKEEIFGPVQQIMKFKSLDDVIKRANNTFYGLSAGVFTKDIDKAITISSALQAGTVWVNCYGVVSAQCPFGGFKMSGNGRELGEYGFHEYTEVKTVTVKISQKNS

For assay [3], the target named is T3, Aldehyde dehydrogenase, mitochondrial (Homo sapiens) (UniProt P05091).
T3 sequence (whole entry): T1 sequence (P05091 whole entry)
The assay is described as follows: Inhibition of full length recombinant human ALDH2 expressed in Escherichia coli assessed as remaining dehydrogenase activity by measuring NAD(P)H level at 10 uM preincubated for 2 mins followed by addition of propionaldehyde as substrate in presence of NAD+ by spectrophotometric method.

Assay [4] deals with T4, Cytosolic 10-formyltetrahydrofolate dehydrogenase (Rattus norvegicus, UniProt P28037).
T4 sequence (P28037 whole entry): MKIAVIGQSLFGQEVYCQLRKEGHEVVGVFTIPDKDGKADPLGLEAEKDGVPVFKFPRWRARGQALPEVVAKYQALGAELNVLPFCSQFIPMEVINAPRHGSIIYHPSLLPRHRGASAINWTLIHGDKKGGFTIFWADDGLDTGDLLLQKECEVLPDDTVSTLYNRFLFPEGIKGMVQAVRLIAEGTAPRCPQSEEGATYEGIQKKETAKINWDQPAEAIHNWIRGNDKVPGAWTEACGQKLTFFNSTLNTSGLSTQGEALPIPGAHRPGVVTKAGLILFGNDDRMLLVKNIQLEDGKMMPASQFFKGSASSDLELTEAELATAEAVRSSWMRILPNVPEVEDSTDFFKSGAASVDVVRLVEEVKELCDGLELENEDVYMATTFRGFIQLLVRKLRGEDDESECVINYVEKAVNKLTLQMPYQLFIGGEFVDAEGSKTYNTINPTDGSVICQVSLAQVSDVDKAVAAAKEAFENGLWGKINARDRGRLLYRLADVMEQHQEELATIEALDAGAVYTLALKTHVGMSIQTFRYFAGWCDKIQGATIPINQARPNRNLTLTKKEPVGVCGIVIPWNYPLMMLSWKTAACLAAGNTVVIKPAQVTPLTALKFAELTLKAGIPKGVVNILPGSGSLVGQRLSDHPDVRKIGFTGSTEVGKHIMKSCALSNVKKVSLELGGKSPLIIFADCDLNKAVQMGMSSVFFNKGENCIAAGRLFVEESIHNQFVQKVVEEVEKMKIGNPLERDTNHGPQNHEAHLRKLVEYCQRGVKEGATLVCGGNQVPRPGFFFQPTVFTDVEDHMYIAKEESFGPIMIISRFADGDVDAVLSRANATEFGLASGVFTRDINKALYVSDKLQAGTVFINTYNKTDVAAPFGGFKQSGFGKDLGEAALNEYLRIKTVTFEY
Briefly: Inhibition of rat ALDH1L1 assessed as reduction in dehydrogenase activity by measuring NAD(P)H level preincubated for 2 mins followed by addition of propionaldehyde as substrate in presence of NAD+ by spectrophotometric method.

The target of assay [5] is T2, Aldehyde dehydrogenase 1A1. The source holds these as a separate data set.
Assay [6] concerns the target T5, Retinaldehyde dehydrogenase 3 (Homo sapiens, UniProt P47895).
T5 sequence (P47895 whole entry): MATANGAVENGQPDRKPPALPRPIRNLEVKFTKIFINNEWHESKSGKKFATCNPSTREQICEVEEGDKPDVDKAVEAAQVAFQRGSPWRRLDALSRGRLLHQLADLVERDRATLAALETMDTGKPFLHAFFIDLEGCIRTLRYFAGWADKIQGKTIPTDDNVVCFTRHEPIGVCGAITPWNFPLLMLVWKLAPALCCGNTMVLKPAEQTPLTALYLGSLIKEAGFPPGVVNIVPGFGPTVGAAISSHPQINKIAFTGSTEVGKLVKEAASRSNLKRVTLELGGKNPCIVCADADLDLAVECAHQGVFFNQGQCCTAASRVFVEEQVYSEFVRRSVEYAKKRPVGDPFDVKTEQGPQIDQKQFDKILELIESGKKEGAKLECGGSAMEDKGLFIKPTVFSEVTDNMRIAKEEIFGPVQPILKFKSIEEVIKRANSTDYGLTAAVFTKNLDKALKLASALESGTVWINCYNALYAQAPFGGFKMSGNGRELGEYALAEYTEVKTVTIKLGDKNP
Description: Inhibition of full length recombinant human ALDH1A3 expressed in Escherichia coli BL21(DE3) assessed as reduction in dehydrogenase activity by measuring NAD(P)H level preincubated for 2 mins followed by addition of propionaldehyde as substrate in presence of NAD+ by spectrophotometric method

Assay [7] addresses T6, Aldehyde dehydrogenase 1A1 (Homo sapiens) (UniProt P00352).
T6 sequence (whole entry): T2 sequence (P00352 whole entry)
Briefly: Inhibition of full length recombinant human ALDH1A1 expressed in Escherichia coli BL21(DE3) assessed as reduction in dehydrogenase activity by measuring NAD(P)H level preincubated for 2 mins followed by addition of propionaldehyde as substrate in presence of NAD+ by spectrophotometric method relative to control.

In the case of `COC(=O)C(C)Oc1ccc2c(C)cc(=O)oc2c1` (centres undefined), the Ki in assay [1] was 310 nM. Further, the IC50 entry in assay [2] and in assay [4] was “Not Active” throughout. Further, in assay [3], the Activity turned out to be 5.72%.

In assay [1], `C/C(=N\O)c1cc2cc(Br)ccc2oc1=O` had a Ki of 2400 nM. In addition, the IC50 entry in assay [2] is “Not Active”. Moreover, the Activity in assay [3] was determined as 48.2%.

`CCCc1c(C)c2cc3c(C)c(C)oc3cc2oc1=O` yielded a Ki in assay [1] of 19 nM. In addition, the IC50 was 220 nM in assay [5], 400 nM in assay [6] and “Not Active” in assay [4]. Further, the Activity in assay [3] is 1.61%.

As for `Cc1oc2cc3oc(=O)c(C)c(C)c3cc2c1C`, the IC50 is 270 nM in assay [6], “Not Active” in assay [2] and “Not Active” in assay [4]. Further, the Activity in assay [3] amounted to 19.5%.

On to `CCCc1c(C)c2cc3c(C)coc3cc2oc1=O`, for which the Imax in assay [7] worked out at 60%. Further, the IC50 in assay [5] was 340 nM; in assay [6], 1100 nM; in assay [4] it was “Not Active”. Also, the Activity in assay [3] came out at 6.25%.

In the case of `CCCc1cc(=O)oc2cc3oc(C)c(C)c3cc12`, the IC50 entry in assay [2] is reported as “Not Active”. In addition, in assay [3], the Activity was determined as 23.8%.

`Cc1oc2cc3oc(=O)c4c(c3cc2c1C)CCC4`: the Imax in assay [7] was 50 to 60%. Besides, the IC50 in assay [5] and in assay [6] was 170 nM each time. Also, the Activity in assay [3] came to 8.25%.

`Cc1oc2cc3oc(=O)c(CCC(=O)N4CCCCC4)c(C)c3cc2c1C` yielded a Ki in assay [1] of 1100 nM. Also, the IC50 worked out at 130 nM in assay [5] and 14000 nM in assay [6]. For the same compound, in assay [3], the Activity came to 3.8%.

`Cc1oc2cc3oc(=O)c4c(c3cc2c1C)CCCC4`: the Imax in assay [7] is 50 to 60%. Moreover, inhibition in assay [5] was half-maximal at 130 nM (IC50). Also, the Activity in assay [3] amounted to 16.3%.

By Ki is commonly meant the equilibrium dissociation constant of an inhibitor or competing ligand from its target. Higher therefore signals weaker binding. The term IC50 denotes the point on the concentration scale where inhibition reaches its midpoint.
